From patent US10647680B2, “Urea compound, preparation method therefor and medical use thereof” (Ancureall Pharmaceutical (Shanghai) Co., Ltd., priority 2016, dated 2020)
Where a name gives a salt, the structure may show the parent alone.

Experiments:
Solubility test = assay type: physicochemical; settings: in water at 25° C.±2° C.; listed as 77 Mesylate
Summary of the method: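 Fine powder added to water at 25° C.±2° C., shaken vigorously 30 s every 5 min for 30 min; dissolution judged by absence of visible particles. Classed by water volume per 1 g: 1-10 ml readily soluble, 10-30 soluble, 30-100 slightly, 100-1,000 sparingly, not dissolved in 10,000 ml insoluble.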

[1] = Stability test: high temperature test (60° C.); assay type: physicochemical; settings: exposed at 60° C. for 10 days, HPLC
Protocol: The test samples were placed into an integrated drug stability test chamber (YSEI) in an exposed way at 60° C. for 10 days. Samples were taken on the 5th and 10th days and tested according to the drug stability test indices.
(§1) An appropriate amount of test samples was taken and dissolved in acetonitrile-water (1:1), and quantitatively diluted to a solution of about 0.3 mg/ml. 20 ul of solution was injected into a liquid chromatograph (Agilent 1260 Infinity), the chromatogram was then recorded and calculated according to the percentage area method. The mobile phase was a phosphate buffer and acetonitrile aqueous solution, and then a gradient elution was carried out.

[2] = Stability test: intense light test (4500LX); assay type: physicochemical; settings: 4500LX±500LX light for 10 days, HPLC
Protocol: The test samples were placed into an integrated drug stability test chamber (YSEI) in an exposed way under 4500LX±500LX light for 10 days. Samples were taken on the 5th and 10th days and tested according to the drug stability test indices.
as §1

[3] = Stability test: high humidity test (90%); assay type: physicochemical; settings: 25° C., relative humidity 90%±5%, 10 days, HPLC
Protocol: The test samples were placed into an integrated drug stability test chamber (YSEI) in an exposed way at 25° C. and relative humidity of 90%±5% for 10 days. Samples were taken on the 5th and 10th days and tested according to the drug stability test indices.
as §1

[4] = Long-term oral toxicity in mice, effect on blood cells; assay type: in vivo, mouse; settings: ICR mice; for mortality rate / weight reduced compared with the control group: oral once a day, to the 40th day
Protocol: Study on the long-term oral toxicity in mice was performed with compound 77 of the present invention as a representative example.
Procedure: 6-week-old ICR mice purchased from Shanghai Sippr-BK Experimental Animal Co., Ltd. were selected with half males and half females, and the animals were randomly divided with 6 mice each group. The test and control groups were orally given once a day for 40 consecutive days, respectively. The body weight and physiological and pathological features of the mice were observed and recorded every day. The drug doses of the test group were 500 mg/kg, 350 mg/kg, and 250 mg/kg of the methanesulfonate of compound 77 in 20% HP-β-CD clear aqueous solution, respectively (the formulation method was the same as that of the test example 10), and the control group was the 20% HP-β-CD aqueous solution.

[5] = oral once a day for 40 days, 250-500 mg/kg

SMILES: COCCOc1ccc2c(c1)ncn2-c1ccc(NC(=O)Nc2cc(C(C)(C)C)n[nH]2)cc1 [Compound 77 Mesylate, 1-(5-tert-butyl-2H-pyrazol-3-yl)-3-{4-[5-(2-methoxyl-ethoxyl)-benzimidazol-1-yl]-phenyl}-urea]
- Solubility (Solubility test): soluble (“soluble” means that 1 g of the test sample could be dissolved in 10-30 ml of water)
- High temperature (60° C.) [1]: stable
- Lighting (4500 LX) [2]: stable
- High Humidity (90%) [3]: stable
- effect on the number of other blood cells [4, 5]: no significant effect
- reticulocytes decreased by [4, 5]: 10%-30%
- mortality rate ([4]; 250 mg/kg): 0%
- weight reduced compared with the control group ([4]; 250 mg/kg): 8.2%
- mortality rate ([4]; 350 mg/kg): 16.7%
- weight reduced compared with the control group ([4]; 350 mg/kg): 23.1%
- mortality rate ([4]; 500 mg/kg): 66.7%
- weight reduced compared with the control group ([4]; 500 mg/kg): 34.7%
